Legend:
[1] = test system: E. coli BT3/pACYCSP+pCR2.1 strain; assay: Growth of E. coli BT3/pACYCSP+pCR2.1 (vector control) with herbicidal compound; format: cell-based, Escherichia coli; conditions: 18 hours culture, Table 6
Source text: According to the description of Gibson, L. C. D. et al., Proc. Natl. Acad. Sci. USA, 92; p 1941 (1995), the DNA fragment containing bchH gene prepared in Example 1 was digested with the restriction enzymes NdeI and BglII. The resultant DNA fragment was inserted between NdeI restriction site and BamHI restriction site of expression vector pET11a (manufactured by Stratagene) to obtain plasmid pETBCH (FIG. 1). This plasmid pETBCH was introduced into E. coli BL21(DE3) strain competent cells (manufactured by Stratagene) according to the manual attached to the competent cells to obtain E. coli BL21(DE3)/pETBCH strain. The strain was inoculated into 1.5 ml LB liquid culture medium (1% tryptone, 0.5% yeast extract, 0.5% NaCl) containing 100 μg/ml ampicillin in a tube (14×10 mm), and the tube was covered with aluminum foil (hereinafter referred to as dark conditions), cultured with shaking at 37° C. under light of fluorescent lamp (about 8000 lux). When the absorbance at 600 nm of the liquid culture medium became about 0.6, isopropyl β-D-thiogalactopyranoside (IPTG) was added to the liquid culture medium so that the final concentration was 0.4 mM, and the culture was continued for about additional 20 hours. […] In contrast to this, when E. coli BL21(DE3)/pETBCH strain was cultured according to the same manner (with IPTG) except that the tube was not covered with aluminum foil (hereinafter referred to as light conditions), E. coli grew and turned red as above.
The plasmid pTCHLH1 and pCR2.1 prepared in Example 7 were introduced into E. coli BT3/pACYCSP strain prepared in Example 3, respectively according to the method described in Hanahan, D. J., Mol. Biol., 166; p 557 (1983). E. coli BT3/pACYCSP+pTCHLH1 strain bearing plasmids pACYCSP and pTCHLH1, and E. coli BT3/pACYCSP+pCR2.1 strain bearing plasmids pACYCSP and pCR2.1 were obtained by culturing the above strains in YPT medium containing 100 μg/ml ampicillin, 15 μg/ml chloramphenicol and 50 μg/ml kanamycin, respectively.
These E. coli strains were inoculated into YPT medium containing 10 or 1 ppm of the PPO inhibitory-type herbicidal compound represented by Structure 8, 100 μg/ml ampicillin, 15 μg/ml chloramphenicol, 50 μg/ml kanamycin, 10 μg/ml hemin and 50 μg/ml aminolevulinic acid, cultured under dark conditions or light conditions according to the same manner as in Example 2. Then, 18 hours after initiation of culture, the absorbance of the liquid culture medium was measured at 600 nm. By taking the absorbance of the medium without the herbicidal compound as 1, the relative value of the absorbance of the medium containing the herbicidal compound was calculated.

[2] = test system: E. coli BT3/pACYCSP+pRASSL strain; assay: Growth of E. coli BT3/pACYCSP+pRASSL with herbicidal compound; format: cell-based, Escherichia coli; conditions: 1 ppm, 18 hours culture, Table 15
Source text: According to the description of Gibson, L. C. D. et al., Proc. Natl. Acad. Sci. USA, 92; p 1941 (1995), the DNA fragment containing bchH gene prepared in Example 1 was digested with the restriction enzymes NdeI and BglII. The resultant DNA fragment was inserted between NdeI restriction site and BamHI restriction site of expression vector pET11a (manufactured by Stratagene) to obtain plasmid pETBCH (FIG. 1). This plasmid pETBCH was introduced into E. coli BL21(DE3) strain competent cells (manufactured by Stratagene) according to the manual attached to the competent cells to obtain E. coli BL21(DE3)/pETBCH strain. […] When the absorbance at 600 nm of the liquid culture medium became about 0.6, isopropyl β-D-thiogalactopyranoside (IPTG) was added to the liquid culture medium so that the final concentration was 0.4 mM, and the culture was continued for about additional 20 hours. […]
These E. coli strains were inoculated into YPT medium containing 1 ppm of the PPO inhibitory-type herbicidal compound represented by Structure 8, 100 μg/ml ampicillin, 15 μg/ml chloramphenicol, 10 μg/ml kanamycin, 10 μg/ml hemin and 50 μg/ml aminolevulinic acid, cultured under dark conditions or light conditions according to the same manner as in Example 2. Then, 18 hours after initiation of culture, the absorbance of liquid culture medium was measured at 600 nm. […]

[3] = test system: tobacco bearing the introduced Arabidopsis thaliana PPO(A220V) gene; assay: Leaf piece chlorophyll test, tobacco with Arabidopsis thaliana PPO(A220V) gene; format: in vivo; conditions: 2.0 ppm, 7 days in a light place, treated vs untreated leaf pieces, Example 37
Source text: Tobacco leaf pieces cultured sterilely were infected with the Agrobacterium strain and, according to the same manner as described in Example 5, tobacco bearing the introduced Arabidopsis thaliana PPO(A220V) gene was obtained.
Leaves of the tobacco bearing the introduced both Arabidopsis thaliana PPO(A220V) gene and gene encoding the variant tobacco chelatase subunit produced in Example 36, those bearing the introduced Arabidopsis thaliana PPO(A220V) gene produced in Example 35, and the control recombinant tobacco leaves produced in Example 5were collected, and each leaf was divided into the right and left equivalent pieces along the main vein. One of the pieces was treated with an aqueous solution containing 2.0 ppm PPO inhibitory-type herbicidal compound of Structure 8, while the other piece was not treated with the compound. These leaf pieces were placed on MS medium containing 0.8% agar and allowed to stand at room temperature for 7 days in a light place. Then, each leaf piece was ground in 5 ml of 80% aqueous acetone solution in a mortar with a pestle to extract chlorophyll. The extract was diluted 10 times with 80% aqueous acetone solution and the absorbance was measured at 750 nm, 663 nm and 645 nm to calculate the total chlorophyll content according to the method described by Macknney G., J. Biol. Chem. (1941) 140, p 315. […]

C#CCOc1cc(N2C(=O)C3=C(CCCC3)C2=O)c(F)cc1Cl [Structure 8]
Relative absorbance ([1]; in the dark, 1 ppm): 1.0
Relative absorbance ([1]; in the dark, 10 ppm): 1.0
Relative absorbance ([1]; in the light, 1 ppm): 0.08
Relative absorbance ([1]; in the light, 10 ppm): 0.03
Relative absorbance ([2]; in the dark): 1.0
Relative absorbance ([2]; in the light): 0.59
resistant level [3]: 12.2%

Reference: patent publication US7973219B2, “Method for producing transgenic plants resistant to weed control compounds which disrupt the porphyrin pathways of plants” (Sumitomo Chemical Company, Limited, priority 1998, dated 2011)
